In patent US11191820B2, “Method for inducing early T memory response with short peptides anti-tumor vaccine” (OSE IMMUNOTHERAPEUTICS, priority 2015, dated 2021):

Tests used:
Format in all cases: in vivo, human
central memory T cells [1] = test: Cultured IFN-γ ELISPOT after 10-day in vitro stimulation of PBMC, phase 1/2 NSCLC trial of OSE-2101; design: key to net SFC of vaccine positive CTL responses: —, indicates SFC response did not meet criteria and vaccine response was negative; conditions: for No. Positive Responses: 6 NSCLC patients
Protocol: (§1) Clinical study design. Both trials were designed as phase 1/2, open label, multi-center, single dose, multiple administration studies to evaluate the safety and immunogenicity of the OSE-2101 immunotherapy. Patients were treated with 1 ml OSE-2101 every 3 weeks for a total of six doses. Each dose was administered subcutaneously in the same vicinity in the deltoid or upper thigh region, or at a contralateral site if local side-effects were observed. The study duration for each completed patient was 18 weeks. Clinical responses or patient survival were not measured in either phase 1/2 studies.
(§2) Clinical sample processing. Blood or leukapheresis product was obtained from patients at the pre-treatment, the Week 9 and Week 18 time points, 3 weeks after the third and sixth dose of OSE-2101 respectively. Peripheral blood mononuclear cells (PBMC) were isolated from samples within 24 hours of collection using a FICOLL-PAQUE density gradient and cryopreserved in containers designed to ensure optimal freezing (Mr. Frosty, Nalgene). For use, cells were rapidly thawed at 37° C. then transferred to human AB serum-containing medium for work-up.
(§3) Measurement of central T memory cells responses and T effector memory cells. The CTL responses in 16 total patients (10 colon and six NSCLC) were monitored for CTL responses against each epitope and against the wild-type epitope of epitopes analogs. For each patient, the pre-treatment, Week 9 and Week 18 time points were batch-tested in the same experiment to allow pre- versus post-treatment response comparison in the same experiment. Central T memory cells responses were measured using an IFN-γ enzyme-linked immunospot (cultured ELISPOT) assay following in vitro stimulation of PBMC for 10 days with each vaccine epitope. Briefly, PBMC from each time point were stimulated on day 0 with 10 μg/ml of each epitope individually in replicate in 48-well culture plates (2×10^6 PBMC/well). All cultures were fed with rIL-2 (Endogen, Woburn, Mass.; 10 U/ml final concentration) on days 1, 4 and 7. Ten days after initiation of culture, cells were harvested and tested for activity against specific vaccine peptides and corresponding wild-type peptides of vaccine analogs in the T memory ELISPOT assay. Cells were tested in Millipore IP 96-well plates pre-coated with mouse anti-human IFN-γ antibody (Mabtech USA, Cincinnati, Ohio). Five×10^4 cells and 1.25×10^4 cells from each culture were plated in triplicate wells together with 10^5 irradiated autologous PBMC and 10 μg/ml peptide. As a control, CTL were also tested against an irrelevant HLA-A2.1-binding HBV peptide. After 20 hours incubation, T memory ELISPOT plates were developed by performing sequential incubations with biotinylated anti-human IFN-γ antibody (Mabtech USA), Avidin-Peroxidase Complex (APC, Vector Laboratories, Burlingame, Calif.), and 3-amino-9-ethyl carbazole (AEC) substrate (Sigma Aldrich, St. Louis, Mo.). Spot-forming cells (SFC) were enumerated using a computer-assisted image analysis system (Zeiss KS ELISPOT Reader, Carl Zeiss MicroImaging, Thornwood, N.J.). Data is reported as the net SFC per 5×10^4 cells after subtracting spots induced with the irrelevant HBV peptide.

central memory T cells [2] = test: Cultured IFN-γ ELISPOT after 10-day in vitro stimulation of PBMC, phase 1/2 colon cancer trial of OSE-2101; design: key to net SFC of vaccine positive CTL responses: —, indicates SFC response did not meet criteria and vaccine response was negative; conditions: for Mean SFC: 10 colon patients
Protocol: as §1, §2, §3

central memory T cells [3] = test: Central memory T cell cultured ELISPOT, phase 2 trial in advanced NSCLC
Protocol: CTL Immune responses measured though cultured Elispot. The immunogenicity was measured in Phase 2 clinical trial on cryopreserved PBMC from each test sample were thawed in 5% human culture medium (RPMI-1640 medium with 25 mM HEPES, supplemented with 5% human AB serum, 4 mM L-glutamine, 0.5 mM sodium pyruvate, 0.1 mM MEM non-essential amino acids, 100 μg/ml streptomycin, and 100 U/ml penicillin) containing 30 μg/ml DNAase. After centrifugation for 5 minutes at 1200 rpm, the cell pellets were resuspended in 5% human culture medium and washed 2 times. For the central Memory T cell cultured ELISPOT assay, 2×10^6/ml PBMC were placed in replicate wells in a 48-well plates and stimulated for 10 days with 10 μg/ml of each peptide. As a positive control, PBMC were also stimulated with a pool of recall viral peptides. Human rIL2 (10 U/ml) was added to the peptide-stimulated cultures at day 1, day 4 and day 7. After 10 days the stimulated cells were harvested and plated at a concentration of 5×10^4/well. Assay wells also received irradiated autologous PBMC (1×10^5/well) and 10 μg/ml peptide, either the vaccine peptide, irrelevant peptide or positive control peptides. Cells stimulated in vitro with each analog epitope were also tested against the corresponding wild-type epitope.
Data analysis and acceptance criteria. Mean and standard deviation (SD) of spots in replicate wells were calculated in all assays by transferring raw ELISPOT data from each experiment to an Excel-based computer program. Positive vaccine-induced T-cell responses were determined according to the criteria described below.
Acceptance Criteria for peptide-Induced specific T-cell response through central memory T cells: The positive criteria for CTL responses used in the phase 2 trial was identical to the criteria in the phase 1/2 trials which was established prospectively after analyzing the variability of pre-treatment responses in patients against each vaccine epitope and the irrelevant HBV control epitope. A positive peptide-induced CTL/T memory response to a given epitope met all of the following conditions: 1) was greater than 5 SFC above the irrelevant epitope response, 2) was greater than the mean SFC of the irrelevant epitope response, plus 2 SD, and 3) was two-fold greater than the SFC response in the pre-vaccination sample from the same patient, plus 2 SD. The inclusion of “plus two standard deviations” was used to accommodate the assay variability and served to increase the criteria stringency.

## KVAEIVHFL [MAGE3.112I5 A]
Central memory T cells [1]; Week 9
  No. Positive Responses: 0
Central memory T cells [1]; Week 18
  No. Positive Responses: 0
Central memory T cells [1]; NSCLC patient 201, Week 9
  net SFC of vaccine positive CTL responses: —
Central memory T cells [1]; NSCLC patient 201, Week 18
  net SFC of vaccine positive CTL responses: —
Central memory T cells [1]; NSCLC patient 502, Week 9
  net SFC of vaccine positive CTL responses: —
Central memory T cells [1]; NSCLC patient 502, Week 18
  net SFC of vaccine positive CTL responses: —
Central memory T cells [1]; NSCLC patient 504, Week 9
  net SFC of vaccine positive CTL responses: —
Central memory T cells [1]; NSCLC patient 504, Week 18
  net SFC of vaccine positive CTL responses: —
Central memory T cells [1]; NSCLC patient 505, Week 9
  net SFC of vaccine positive CTL responses: —
Central memory T cells [1]; NSCLC patient 505, Week 18
  net SFC of vaccine positive CTL responses: —
Central memory T cells [1]; NSCLC patient 532, Week 9
  net SFC of vaccine positive CTL responses: —
Central memory T cells [1]; NSCLC patient 532, Week 18
  net SFC of vaccine positive CTL responses: —
Central memory T cells [1]; NSCLC patient 651, Week 9
  net SFC of vaccine positive CTL responses: —
Central memory T cells [1]; NSCLC patient 651, Week 18
  net SFC of vaccine positive CTL responses: —
Central memory T cells [2]; Week 9
  Mean SFC: 49.2 SFC per 50,000 cells
Central memory T cells [2]; Week 18
  Mean SFC: 77.8 SFC per 50,000 cells
Central memory T cells [2]; colon patient 551, Week 9
  net SFC of vaccine positive CTL responses: —
Central memory T cells [2]; colon patient 551, Week 18
  net SFC of vaccine positive CTL responses: 8.7 SFC per 50,000 cells
Central memory T cells [2]; colon patient 601, Week 9
  net SFC of vaccine positive CTL responses: 27.0 SFC per 50,000 cells
Central memory T cells [2]; colon patient 601, Week 18
  net SFC of vaccine positive CTL responses: —
Central memory T cells [2]; colon patient 602, Week 9
  net SFC of vaccine positive CTL responses: —
Central memory T cells [2]; colon patient 602, Week 18
  net SFC of vaccine positive CTL responses: —
Central memory T cells [2]; colon patient 603, Week 9
  net SFC of vaccine positive CTL responses: —
Central memory T cells [2]; colon patient 603, Week 18
  net SFC of vaccine positive CTL responses: 16.0 SFC per 50,000 cells
Central memory T cells [2]; colon patient 604, Week 9
  net SFC of vaccine positive CTL responses: 60.3 SFC per 50,000 cells
Central memory T cells [2]; colon patient 604, Week 18
  net SFC of vaccine positive CTL responses: 268.0 SFC per 50,000 cells
Central memory T cells [2]; colon patient 605, Week 9
  net SFC of vaccine positive CTL responses: —
Central memory T cells [2]; colon patient 605, Week 18
  net SFC of vaccine positive CTL responses: —
Central memory T cells [2]; colon patient 606, Week 9
  net SFC of vaccine positive CTL responses: —
Central memory T cells [2]; colon patient 606, Week 18
  net SFC of vaccine positive CTL responses: 18.7 SFC per 50,000 cells
Central memory T cells [2]; colon patient 607, Week 9
  net SFC of vaccine positive CTL responses: 60.3 SFC per 50,000 cells
Central memory T cells [2]; colon patient 607, Week 18
  net SFC of vaccine positive CTL responses: —
Central memory T cells [2]; colon patient 608, Week 9
  net SFC of vaccine positive CTL responses: —
Central memory T cells [2]; colon patient 608, Week 18
  net SFC of vaccine positive CTL responses: —
Central memory T cells [2]; colon patient 609, Week 9
  net SFC of vaccine positive CTL responses: —
Central memory T cells [2]; colon patient 609, Week 18
  net SFC of vaccine positive CTL responses: —
Central memory T cells [3]; phase 2, month 9
  % of patients with positive CTL/central memory T cell response: 0%
  patients with positive CTL/central memory T cell response / patients tested: 0/7
Central memory T cells [3]; phase 2, month 12
  % of patients with positive CTL/central memory T cell response: 0%
  patients with positive CTL/central memory T cell response / patients tested: 0/4
Central memory T cells [3]; phase 2, week 9
  % of patients with positive CTL/central memory T cell response: 30%
  patients with positive CTL/central memory T cell response / patients tested: 10/33
Central memory T cells [3]; phase 2, week 18
  % of patients with positive CTL/central memory T cell response: 25%
  patients with positive CTL/central memory T cell response / patients tested: 8/32
Central memory T cells [3]; phase 2, week 30
  % of patients with positive CTL/central memory T cell response: 43%
  patients with positive CTL/central memory T cell response / patients tested: 10/23
